Experimental findings from patent US8282909B2, “Pharmaceutical composition for topical application of poorly soluble compounds” (Intendis GmbH, priority 2007, dated 2012) are described below.

This data set can be described thus: Solubility of the active substance in solvents and vehicles. Type of data set: physicochemical. From the text:
Topically administered active substances are mainly used to treat the redness, swelling, itching and discomfort of psoriasis, atopic dermatitis and other pathologies of the skin. […] Glucocorticosteroids, steroids, calcineurin inhibitors, vitamin D analoques, retinoids, immunosuppressants, antimycotics, antiinfectives, estrogens, androgens, fumaric acid esters are typical drug classes for topical administration with such low water solubility. Other examples for such poorly soluble compounds are provided e.g. in WO 03/082827 or WO 2006/050998. One example is the non-steroidal active substance having the chemical name (R)-1,1,1-Trifluoro-4-(5-fluoro-2,3-dihydrobenzofuran-7-yl)-4-methyl-2-{[(2-methyl-5-quinolyl)amino]methyl}pentan-2-ol, the empirical formula of which is C25H26F4N2O2, having a molecular weight of 462.5. This is the compound according to example 1 of WO 2006/050998 (hereinafter Ex1/998).

In the case of `Cc1ccc2c(NC[C@](O)(CC(C)(C)c3cc(F)cc4c3OCC4)C(F)(F)F)cccc2n1` [Ex1/998, (R)-1,1,1-Trifluoro-4-(5-fluoro-2,3-dihydrobenzofuran-7-yl)-4-methyl-2-{[(2-methyl-5-quinolyl)amino]methyl}pentan-2-ol], the “solubility in ethyl alcohol” value (ethyl alcohol) is given as “moderately soluble”. In addition, the solubility in hexane result (hexane) is “only slightly soluble”. Where the note is “vehicles for topical administration, such as petrolatum and mineral oils”, the “solubility in standard cream and ointment vehicles” value is reported as “very poor solubility”. Moreover, for the setting “water”, the solubility in water result is on record as “insoluble”.
